In one assay the target is cruzain (Trypanosoma cruzi, UniProt P25779). In words: biochemical. The settings on record: for Cruzain Inhibition 0’: 0’ (no pre-incubation); for Cruzain Inhibition 0’ / Cruzain Inhibition 10’: sheet Screening results; for Cruzain Inhibition 10’: 10’ (pre-incubation); for Cruzain 0’ Inhibition: 0’ (pre-incubation time); for Cruzain 0’ Inhibition / Cruzain 10’ Inhibition: sheet "Screening results"; for Cruzain 10’ Inhibition: 10’ (pre-incubation time). The method, boiled down: (§1)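 Recombinant enzymes assayed by Z-Phe-Arg-AMC cleavage at 25 °C, fluorescence 340/440 nm over 5–7 min, with 10 min or no enzyme–compound preincubation.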
cruzain, sequence (P25779 123-337 limits assumed): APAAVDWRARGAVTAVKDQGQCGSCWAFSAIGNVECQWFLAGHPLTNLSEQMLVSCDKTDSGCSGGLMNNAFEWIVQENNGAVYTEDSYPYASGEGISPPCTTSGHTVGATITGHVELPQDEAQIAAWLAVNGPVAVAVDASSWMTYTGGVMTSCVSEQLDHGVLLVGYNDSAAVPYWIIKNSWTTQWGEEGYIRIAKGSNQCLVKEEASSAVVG

A further assay concerns the target T1, TbrCatL (Trypanosoma brucei rhodesiense, UniProt Q95PM0).
T1 construct: Conor Caffrey (University of California San Diego)
In words: TbrCatL enzymatic inhibition assay (cleavage of fluorogenic substrate Z-FR-AMC). It is filed as biochemical. The settings on record: for TbrCatL Inhibition 0’: 0’ (no pre-incubation); for TbrCatL Inhibition 0’ / TbrCatL Inhibition 10’: sheet Screening results; for TbrCatL Inhibition 10’: 10’ (pre-incubation); for TbrCatL 0’ Inhibition: 0’ (pre-incubation time); for TbrCatL 0’ Inhibition / TbrCatL 10’ Inhibition: sheet "Screening results"; for TbrCatL 10’ Inhibition: 10’ (pre-incubation time). The method, boiled down:
as §1
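Further: at 5 µM compound concentration.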

T1 sequence (Q95PM0 entry or part of it): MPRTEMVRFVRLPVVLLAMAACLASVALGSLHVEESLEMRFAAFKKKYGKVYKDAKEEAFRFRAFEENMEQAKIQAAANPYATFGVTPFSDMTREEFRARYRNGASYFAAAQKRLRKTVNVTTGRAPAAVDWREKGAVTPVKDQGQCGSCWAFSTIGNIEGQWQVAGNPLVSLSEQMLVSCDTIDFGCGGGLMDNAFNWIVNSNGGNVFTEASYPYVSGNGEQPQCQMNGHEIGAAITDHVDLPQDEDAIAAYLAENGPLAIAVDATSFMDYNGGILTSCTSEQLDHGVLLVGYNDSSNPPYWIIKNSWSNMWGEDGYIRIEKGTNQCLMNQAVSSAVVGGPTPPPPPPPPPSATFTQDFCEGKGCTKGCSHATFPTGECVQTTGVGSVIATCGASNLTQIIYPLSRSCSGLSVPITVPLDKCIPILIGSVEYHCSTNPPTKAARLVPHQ

Turning to `Cc1nnc(NC(=O)c2cn(-c3ccccc3)nc2-c2ccccc2C)o1` [MMV020320], at cruzain, the “Cruzain Inhibition 0’” value was determined as 4.5% and the “Cruzain Inhibition 10’” value worked out at 2.2%. Also, on TbrCatL, the “TbrCatL Inhibition 0’” value is listed as -0.2% and the “TbrCatL Inhibition 10’” value was found to be 4%.

Turning to `CS(=O)(=O)N1CCC(CCn2nc(Cc3cccc4ccccc34)c3c(N)ncnc32)CC1` [MMV688470], at cruzain, the “Cruzain Inhibition 0’” value is given as 10% and the “Cruzain Inhibition 10’” value worked out at 11%. On TbrCatL, the “TbrCatL Inhibition 0’” value amounted to 14% and the “TbrCatL Inhibition 10’” value is reported as 9%.

For `COc1ccc(S(=O)(=O)Nc2ccc(CN3CCN(C(=O)c4cccc(C#N)c4)CC3)cc2)cc1` [MMV689029], at cruzain, the “Cruzain 0’ Inhibition” value worked out at 2.5% and the “Cruzain 10’ Inhibition” value came out at 5.4%. Besides, at TbrCatL, the “TbrCatL 0’ Inhibition” value stood at 0.7% and the “TbrCatL 10’ Inhibition” value was found to be 1.2%.

As for `O=C(c1n[nH]c2c1CCCC2)N1CCN(Cc2ccc3c(c2)OCO3)CC1` [MMV676389], on cruzain, the “Cruzain Inhibition 0’” value was -6% and the “Cruzain Inhibition 10’” value is reported as -3.4%. Further, at TbrCatL, the “TbrCatL Inhibition 0’” value is -12% and the “TbrCatL Inhibition 10’” value is reported as -7%.

Consider `CNC(=O)CNc1nc(-c2ccccn2)nc2scc(-c3ccccc3)c12` [MMV1029203], for which, at cruzain, the “Cruzain 0’ Inhibition” value is on record as -6% and the “Cruzain 10’ Inhibition” value is on record as 28%. Also, at TbrCatL, the “TbrCatL 0’ Inhibition” value is -10% and the “TbrCatL 10’ Inhibition” value is -7%.

For the compound `C[C@H]1COC2(CCN(c3nc(=O)c4cc(C(F)(F)F)cc([N+](=O)[O-])c4s3)CC2)O1` [MMV676603], on cruzain, the “Cruzain Inhibition 0’” value is reported as 1.3% and the “Cruzain Inhibition 10’” value is listed as 1.7%. Moreover, at TbrCatL, the “TbrCatL Inhibition 0’” value came out at 4.5% and the “TbrCatL Inhibition 10’” value turned out to be 2.8%.

With `CS(=O)(=O)N1CCC(Cn2nc(Cc3cccc4ccccc34)c3c(N)ncnc32)CC1` [MMV676050], at cruzain, the “Cruzain 0’ Inhibition” value was determined as 0.2% and the “Cruzain 10’ Inhibition” value turned out to be 8%. Besides, on TbrCatL, the “TbrCatL 0’ Inhibition” value turned out to be 0.1% and the “TbrCatL 10’ Inhibition” value is reported as 3%.

With `O=C1COCc2ccc(Br)cc2N1Cc1ccc(C(F)(F)F)cc1` [MMV032995], on cruzain, the “Cruzain 0’ Inhibition” value is on record as -5% and the “Cruzain 10’ Inhibition” value came to 0.2%. Also, on TbrCatL, the “TbrCatL 0’ Inhibition” value was -7% and the “TbrCatL 10’ Inhibition” value was -7%.

For the compound `O=C(C1CCN(c2cc(-n3cccc3)ncn2)CC1)N1CCc2ccccc2C1` [MMV687172], on cruzain, the “Cruzain 0’ Inhibition” value was -2.4% and the “Cruzain 10’ Inhibition” value was -1.9%. Also, at TbrCatL, the “TbrCatL 0’ Inhibition” value came to 0.3% and the “TbrCatL 10’ Inhibition” value was 15%.

As for `O=C(Cn1ccnc1[N+](=O)[O-])NCc1ccccc1` [MMV688773], on cruzain, the “Cruzain Inhibition 0’” value stood at 19% and the “Cruzain Inhibition 10’” value stood at 4%. At TbrCatL, the “TbrCatL Inhibition 0’” value is 4.3% and the “TbrCatL Inhibition 10’” value worked out at 3.7%.

Consider `CC(C)(C)n1nc(Cc2ccc(F)c(Cl)c2)c2c(N)ncnc21` [MMV688852], for which, on cruzain, the “Cruzain Inhibition 0’” value was determined as 6% and the “Cruzain Inhibition 10’” value came out at 0.5%. For the same compound, on TbrCatL, the “TbrCatL Inhibition 0’” value is listed as -2.7% and the “TbrCatL Inhibition 10’” value was -13%.

With `Cc1cc(NCC(C)C)c2[nH]nc(-c3ccccc3)c2n1` [MMV021375], on cruzain, the “Cruzain 0’ Inhibition” value came out at 18% and the “Cruzain 10’ Inhibition” value came out at 23%. Moreover, on TbrCatL, the “TbrCatL 0’ Inhibition” value was 17% and the “TbrCatL 10’ Inhibition” value was determined as 20%.

With `CCCCS(=O)(=O)Nc1ccc2cnn(C)c2c1` [MMV687145], on cruzain, the “Cruzain Inhibition 0’” value is given as -4.6% and the “Cruzain Inhibition 10’” value is on record as -6%. Besides, at TbrCatL, the “TbrCatL Inhibition 0’” value was -3% and the “TbrCatL Inhibition 10’” value was -1.9%.

Regarding `Clc1cccc(CO[C@H]2CCc3ccccc3[C@@H]2n2ccnn2)c1` [MMV676159], on cruzain, the “Cruzain 0’ Inhibition” value was -3% and the “Cruzain 10’ Inhibition” value is -1.8%. Moreover, on TbrCatL, the “TbrCatL 0’ Inhibition” value was -13% and the “TbrCatL 10’ Inhibition” value is given as -6%.

On to `C[C@H](c1ccc2c(c1)CCCC2)N(C)c1ncc2c(N)nc(N)nc2n1` [MMV690103], for which, at cruzain, the “Cruzain 0’ Inhibition” value is -2.7% and the “Cruzain 10’ Inhibition” value turned out to be 16%. Besides, on TbrCatL, the “TbrCatL 0’ Inhibition” value was -18% and the “TbrCatL 10’ Inhibition” value is given as -22%.

On to `Cc1cc2nc(NC(=O)C(C)(C)C)nc(Cl)c2n1Cc1ccc(Cl)cc1` [MMV688704], for which, on cruzain, the “Cruzain Inhibition 0’” value worked out at 11% and the “Cruzain Inhibition 10’” value was found to be 10%. In addition, at TbrCatL, the “TbrCatL Inhibition 0’” value is 16% and the “TbrCatL Inhibition 10’” value amounted to 16%.

With `Cc1ccc(NC(=O)c2cc(S(=O)(=O)NC(C)(C)C)ccc2C)nc1` [MMV020289], on cruzain, the “Cruzain 0’ Inhibition” value is given as 1% and the “Cruzain 10’ Inhibition” value came to 1.9%. Moreover, on TbrCatL, the “TbrCatL 0’ Inhibition” value is 1.9% and the “TbrCatL 10’ Inhibition” value was found to be 1.3%.

Turning to `Cc1c[nH]c(CCNC(=O)c2cc(-c3ccc(Cl)cc3)cs2)n1` [MMV676350], at cruzain, the “Cruzain Inhibition 0’” value came to 17% and the “Cruzain Inhibition 10’” value came out at 22%. On TbrCatL, the “TbrCatL Inhibition 0’” value was 28% and the “TbrCatL Inhibition 10’” value is reported as 28%.

As for `COc1cc(NC(=O)Cc2nn(C)c(=O)c3ccccc23)ccc1Cl` [MMV676053], at cruzain, the “Cruzain 0’ Inhibition” value is on record as 0% and the “Cruzain 10’ Inhibition” value is recorded as 1.7%. Moreover, at TbrCatL, the “TbrCatL 0’ Inhibition” value was 1.2% and the “TbrCatL 10’ Inhibition” value is 1.5%.

Turning to `CC(C)=CCC/C(C)=C\CNCCNC1C2CC3CC(C2)CC1C3` (centres unmarked) [MMV687273], at cruzain, the “Cruzain 0’ Inhibition” value is listed as -1.6% and the “Cruzain 10’ Inhibition” value was determined as 2.8%. Further, on TbrCatL, the “TbrCatL 0’ Inhibition” value is on record as -3.2% and the “TbrCatL 10’ Inhibition” value is given as -4.3%.

In the case of `C[C@]1(COc2ccc(N3CCC(Oc4ccc(OC(F)(F)F)cc4)CC3)cc2)Cn2cc([N+](=O)[O-])nc2O1` [MMV688262], on cruzain, the “Cruzain 0’ Inhibition” value was -0.1% and the “Cruzain 10’ Inhibition” value is listed as -0.4%. In addition, at TbrCatL, the “TbrCatL 0’ Inhibition” value is given as 0.7% and the “TbrCatL 10’ Inhibition” value is given as -1.4%.

Regarding `CCc1cc(=O)n(C)c(SC(C)C(=O)Nc2ccc(F)cc2)n1` (centres unmarked) [MMV688980], on cruzain, the “Cruzain 0’ Inhibition” value is recorded as -3.8% and the “Cruzain 10’ Inhibition” value is recorded as -0.6%. In addition, on TbrCatL, the “TbrCatL 0’ Inhibition” value is -11% and the “TbrCatL 10’ Inhibition” value was -14%.

Take `Cc1cc(NCCc2ccccc2)nc(NC(=N)Nc2ccc(Cl)cc2)n1` [MMV021660]: at cruzain, the “Cruzain 0’ Inhibition” value is recorded as 11% and the “Cruzain 10’ Inhibition” value worked out at 14%. Besides, on TbrCatL, the “TbrCatL 0’ Inhibition” value was -3.6% and the “TbrCatL 10’ Inhibition” value is 7%.

Consider `COc1ccc2nc(C)cc(OCC(=O)Nc3ccccc3OC)c2c1` [MMV687188], for which, on cruzain, the “Cruzain 0’ Inhibition” value is 0.8% and the “Cruzain 10’ Inhibition” value came to 4.7%. Also, on TbrCatL, the “TbrCatL 0’ Inhibition” value is recorded as -0.5% and the “TbrCatL 10’ Inhibition” value was 3%.

On to `CS(=O)(=O)c1ccc(C(=O)N(CC2CCCO2)c2nc3ccccc3s2)cc1[N+](=O)[O-]` (centres unmarked) [MMV688761], for which, at cruzain, the “Cruzain Inhibition 0’” value is given as -0.3% and the “Cruzain Inhibition 10’” value was 5.7%. At TbrCatL, the “TbrCatL Inhibition 0’” value is recorded as -0.9% and the “TbrCatL Inhibition 10’” value stood at 1.2%.

`CN1CCN(S(=O)(=O)c2ccc(-c3ccc4c(Nc5ncc(Cl)cn5)ccnc4c3)cc2)CC1` [MMV688283]: at cruzain, the “Cruzain Inhibition 0’” value is given as 30% and the “Cruzain Inhibition 10’” value is 31%. For the same compound, on TbrCatL, the “TbrCatL Inhibition 0’” value turned out to be 24% and the “TbrCatL Inhibition 10’” value was 18%.

The values are drawn from publication PMC9967275, “Screening the Pathogen Box to Discover and Characterize New Cruzain and TbrCatL Inhibitors” (Pathogens, 2023).
